Measured values taken from patent publication US20060115492A1, “Pharmaceutical composition and health food comprising extract of Phellinus sp. PL3 or phellinsin a isolated from the same as an effective component for prevention and treatment of cardiovascular disease” (Korea Research Institute of Bioscience and Biotechnology, priority 2004, published 2006).

What was measured:
[1] = test system: LDL; assay: Anti-oxidation to LDL by TBARS method (Cu2+-mediated LDL oxidation); assay type: biochemical, human; conditions: read-out: IC50 (anti-oxidant activity to LDL)
Procedure: The Phellinus sp. PL3 extract and the phellinsin A isolated from the same prepared as described in Examples were examined for their anti-oxidant activity to LDL as follows.
In the present invention, dialdehydes as an oxidative product of unsaturated fatty acids was measured by performing TBARS (thiobarbituric acid-reactive substances) method to investigate the anti-oxidant activities of Phellinus sp. PL3 extract and the phellinsin A isolated from Phellinus sp PL3.
300 mL of human plasma was centrifuged at 100,000×g for 24 hours with an ultracentrifuge to remove a very low density lipoprotein (VLDL)/chylomicron layer floated on the supernatant. The remaining solution was adjusted to 1.063 g/mL of gravity and centrifuged at 100,000×g for 24 hours to separate again 25 mL (1.5-2.5 mg protein/mL) of LDL floated on the supernatant. […]
Then, 10 μL of 0.25 mM CuSO4 was added to the resulting solution, reacted at 37° C. for 4 hours and added with 1 mL of 20% trichloroacetic acid (TCA) solution to stop the reaction. […] The resulting solution was centrifuged at 3,000 rpm for 5 min to separate supernatant and measured the absorbance at 540 nm with a UV-visible spectrophotometer. Finally, the amount of malondialdehyde (MDA) generated by the coloring reaction was determined.
In the experiment using Phellinus sp. […] PL3, the amount of malondialdehyde was quantified by using this standard curve.

[2] = test system: LDL; assay: Anti-oxidant activity by monitoring conjugated dienes continuously (LDL oxidation, absorbance at 234 nm); assay type: biochemical, human; conditions: control lag time 44 min
Procedure: 240 μL of LDL (120 μg/mL of protein concentration) separated in Experimental Example 1 was mixed with 2,510 μL of 10 mM phosphate buffer solution and added with 10 μL of phellinsin A solution prepared in 2 kinds of concentration (2 μM and 5 μM), respectively. At this moment, the phellinsin A was utilized after dissolved in DMSO and for a negative control, only solvent was added. For a positive control, probucol was added before use.
Then, 240 μL of 0.125 mM CuSO4 was added to the resulting solution, reacted at 37° C. for 4 hours and coincidently, measured by monitoring the absorbance at 234 nm with a UV-visible spectrophotometer at 10 min intervals.

[3] = DPPH radical scavenging; assay type: biochemical; conditions: for Radical scavenging activity (%): 100 μM solutions in methanol; for IC50: after 35 min, read-out: IC50 (DPPH free radical scavenging)
Procedure: Phellinsin A and 1-diphenyl-2-picryl hydrazyl (DPPH) were dissolved in methanol to be adjusted to 100 μM of concentration, respectively. Then, 1 mL of phellinsin A solution was mixed with 2 mL of DPPH solution and stirred well. […]

[4] = test system: macrophage-mediated LDL oxidation (THP-1 cells); assay: Macrophage-mediated LDL oxidation (THP-1 cells, TBARS); assay type: cell-based; conditions: for MDA nmol/mg LDL protein: LDL + cell + Cu2+, control 210.6 ± 10.7
Procedure: Then, the resulting cells were cultivated for 3 days and activated by using macrophages sufficiently.
Phellinsin A was dissolved in DMSO and diluted in various concentrations before used in the experiment. In order to catalyze the macrophage-mediated LDL oxidation, 2μL of 0.5 mM CuSO4 was added to the phellinsin A solution. Incubation was then carried out for 24 hours at 37° C. under a humidified atmosphere containing 5% CO2.

[5] = Acute toxicity test of oral administration in mice; assay type: in vivo; conditions: both sexes, ICR, mouse, in vivo, po
Procedure: (§1) In order to investigate the acute toxicity of Phellinus sp. PL3 extract or phellinsin A isolated from the same according to the present invention, the experimental procedure is performed as follows.
(§2) 4-week old specific pathogens free (SPF) ICR mice were adopted in 12 of female and 12 of male mice (3 male and female mice/dose group, respectively) and raised in a breeding room under 12 L/12 D of light kept at temperature of 22±3° C. humidity of 55±10%. The experimental mice were adapted for a week before use. Animal fodder (purchased from Cheil Feed Co. Ltd., for mice and rat uses) and water were provided after sterilized and fed freely.
(§3) The Phellinus sp. PL3 extract and phellinsin A isolated from the same prepared in Examples were made to 50 mg/mL of concentration by using 0.55% Tween 80 solvent and orally administered in 0.04 mL (100 mg/kg), 0.2 mL (500 mg/kg) and 0.4 mL (1,000 mg/kg) per 20 g of body weight. […]
(§4) In addition, the experimental mice were killed, anatomized and examined on inner organs with the naked eyes in 7 days of administration. In a day interval from the 1st day, the body weights were measured to examine whether the Phellinus sp. […]

[6] = test system: ICR mice; assay: Acute toxicity test of oral administration in mice; assay type: in vivo; conditions: oral 100, 500 and 1,000 mg/kg once, ICR mice, 7 days
Procedure: as §1, §2, §3, §4

[7] = target: T1, chitin synthase 2 of Saccharomyces cerevisiae (Saccharomyces cerevisiae, UniProt P14180); conditions: J. Antibiotics, 2000, 9: 903-911; cited from earlier work
T1 sequence (P14180 1-963): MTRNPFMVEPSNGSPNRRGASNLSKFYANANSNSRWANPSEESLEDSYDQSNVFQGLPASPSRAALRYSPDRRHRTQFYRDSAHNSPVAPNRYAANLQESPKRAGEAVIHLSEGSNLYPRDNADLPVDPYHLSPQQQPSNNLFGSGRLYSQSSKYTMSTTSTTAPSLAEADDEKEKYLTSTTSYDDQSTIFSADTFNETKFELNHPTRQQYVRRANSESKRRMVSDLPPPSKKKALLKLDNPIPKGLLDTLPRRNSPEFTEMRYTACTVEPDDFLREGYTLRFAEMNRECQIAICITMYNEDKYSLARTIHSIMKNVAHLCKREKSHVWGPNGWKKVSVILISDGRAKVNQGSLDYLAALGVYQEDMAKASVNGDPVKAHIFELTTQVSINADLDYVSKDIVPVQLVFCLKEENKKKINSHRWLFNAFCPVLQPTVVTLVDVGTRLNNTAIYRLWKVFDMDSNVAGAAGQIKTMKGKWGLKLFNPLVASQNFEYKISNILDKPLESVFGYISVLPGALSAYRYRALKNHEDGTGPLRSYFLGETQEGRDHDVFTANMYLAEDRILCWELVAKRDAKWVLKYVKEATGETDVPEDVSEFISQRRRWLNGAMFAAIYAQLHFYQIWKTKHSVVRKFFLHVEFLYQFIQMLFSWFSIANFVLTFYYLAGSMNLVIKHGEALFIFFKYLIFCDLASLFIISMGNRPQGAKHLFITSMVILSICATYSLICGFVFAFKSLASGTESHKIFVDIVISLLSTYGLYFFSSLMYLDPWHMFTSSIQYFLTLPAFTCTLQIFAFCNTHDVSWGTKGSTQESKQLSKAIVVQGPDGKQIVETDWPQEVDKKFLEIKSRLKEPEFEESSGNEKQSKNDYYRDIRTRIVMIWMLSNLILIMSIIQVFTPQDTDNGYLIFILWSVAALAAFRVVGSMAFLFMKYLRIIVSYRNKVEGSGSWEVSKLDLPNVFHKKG

With `O=C1OC(c2ccc(O)c(O)c2)C(C(=O)O)/C1=C\c1ccc(O)c(O)c1` (stereo not shown) [Phellinsin A, phellinsin A] the IC50 [1] was 5.3 µM, the “lag time (conjugated dienes)” value ([2]; 2 μM) was 192 min and the “lag time (conjugated dienes)” value ([2]; 5 μM, monitored up to 240 min) was > 240 min. For the same compound, the “Radical scavenging activity (%)” value ([3]; 5 min) was 55%, the “Radical scavenging activity (%)” value ([3]; 10 min) was 87% and the “Radical scavenging activity (%)” value ([3]; 30 min) was 92%. For the same compound, the IC50 [3] was 1.7 µM, the “MDA nmol/mg LDL protein” value ([4]; 1 μM) was 167.7 ± 6.2 nmol/mg LDL protein and the “MDA nmol/mg LDL protein” value ([4]; 2 μM) was 94.2 ± 4.7 nmol/mg LDL protein. The “MDA nmol/mg LDL protein” value ([4]; 5 μM) was 55.9 ± 2.8 nmol/mg LDL protein, the “MDA nmol/mg LDL protein” value ([4]; 10 μM) was 39.4 ± 0.9 nmol/mg LDL protein and the “anti-oxidant activity relative to probucol on macrophage-mediated LDL oxidation” value ([4]; 2-10 μM, times stronger than probucol) was 2-3.7 times. For the same compound, the LD50 at 7 days [5] was ≥ 1000 mg/kg, the “toxicity (clinical symptoms, deaths, body weight, blood tests, autopsy)” value [6] was “no toxicity” and the “inhibition of chitin synthase 2” value [7] was “highly inhibit”.
For `Cc1c(C)c2c(c(C)c1O)CCC(C)(C(=O)O)O2` (stereo not shown) [trolox, reference compound], the IC50 [3] was 18.6 µM.
For `CC(C)(Sc1cc(C(C)(C)C)c(O)c(C(C)(C)C)c1)Sc1cc(C(C)(C)C)c(O)c(C(C)(C)C)c1` [Probucol, probucol, reference compound], the “lag time (conjugated dienes)” value ([2]; 2 μM) was 63 min, the “lag time (conjugated dienes)” value ([2]; 5 μM, monitored up to 240 min) was 70 min and the “MDA nmol/mg LDL protein” value ([4]; 1 μM) was 209.7 ± 1.7 nmol/mg LDL protein. The “MDA nmol/mg LDL protein” value ([4]; 2 μM) was 199.1 ± 10.7 nmol/mg LDL protein, the “MDA nmol/mg LDL protein” value ([4]; 5 μM) was 157.4 ± 2.4 nmol/mg LDL protein and the “MDA nmol/mg LDL protein” value ([4]; 10 μM) was 145.5 ± 3.9 nmol/mg LDL protein.
